Measurements from patent US8962859B2, “Spiro-amino-imidazo-fused heterocyclic compounds as beta-secretase modulators and methods of use” (Amgen Inc., priority 2011, dated 2015).

Key:
BACE 1 = BACE 1 (Homo sapiens (Human), UniProt P56817); test: In vitro enzymatic BACE FRET assay; assay type: biochemical; conditions: average IC50; acetate buffer pH 4.2, enzyme 0.2 nM, FRET substrate 50 nM
Protocol: In Vitro Enzymatic BACE FRET (Fluorescence Resonance Energy Transfer) Assay (Enzyme Assay Data in the Example Table I)
The assay buffer used in this screen is 0.05 M acetate, pH 4.2, 10% DMSO final, 100 uM genapol (which is a nonionic detergent, below its Critical Micelle Concentration). The Beta Secretase enzyme (0.2 nM) is pre-incubated for one hour with inhibitors, typically in about 1 uL of DMSO according to a serial dilution, are added thereto. This assay is effectively started by the addition of FRET substrate (50 nM) and the combination is incubated for one hour. The FRET assay is terminated with by addition of Tris buffer, which raises the pH to neutrality, and the fluorescence is determined. The FRET substrate is a peptide with commercially available fluorophore and quencher, on opposite sides of the BACE cleavage site. Proteolytic cleavage of the FRET substrate releases quenching of fluorescence (excitation 488 nm and […]).

[1] = test system: Aβ 40 levels in cells stably expressing Amyloid Precursor Protein (APP); test: In vitro BACE cell-based assay (HEK cell assay), Aβ40 sandwich ELISA; conditions: average IC50, inhibition of Aβ40 in conditioned medium after 24 h
Protocol: The cell-based assay measures inhibition or reduction of Aβ40 in conditioned medium of test compound treated cells expressing amyloid precursor protein.
Cells stably expressing Amyloid Precursor Protein (APP) were plated at a density of 40K cells/well in 96 well plates (Costar). The cells were cultivated for 24 hours at 37° C. and 5% CO2 in DMEM supplemented with 10% FBS. The test compounds were then added to cells in 10-point dose response concentrations with the starting concentration being either 100 μM or 10 μM. The compounds were diluted from stock solutions in DMSO and the final DMSO concentration of the test compounds on cells was 0.1%. After 24 h of incubation with the test compounds the supernatant conditioned media was collected and the Aβ 40 levels were determined using a sandwich ELISA. The IC50 of the compound was calculated from the percent of control or percent inhibition of Aβ 40 as a function of the concentration of the test compound.
The sandwich ELISA to detect Aβ 40 was performed in 96 well microtiter plates, which were pre-treated with goat anti-rabbit IgG (Pierce). The capture and detecting antibody pair that were used to detect Aβ 40 from cell supernatants were affinity purified pAb40 (Biosource) and biotinylated 6E10 (Signet Labs Inc.), respectively.
Cellular supernatants were incubated with the capture antibody for 3 h at 4° C., followed by 3 wash steps in TBS-tween (0.05%). The detecting antibody incubation was for 2 h at 4° C., again followed by the wash steps as described previously. The final readout of the ELISA is Time-Resolved Fluorescence (counts per minute) using Delfia reagents Streptavidin-Europium and Enhancement solutions (Perkin Elmer) and the Victor 2 multilabel counter (Perkin Elmer).

gamma-secretase = conditions: cited from earlier work

BACE 1, sequence (P56817 46-501): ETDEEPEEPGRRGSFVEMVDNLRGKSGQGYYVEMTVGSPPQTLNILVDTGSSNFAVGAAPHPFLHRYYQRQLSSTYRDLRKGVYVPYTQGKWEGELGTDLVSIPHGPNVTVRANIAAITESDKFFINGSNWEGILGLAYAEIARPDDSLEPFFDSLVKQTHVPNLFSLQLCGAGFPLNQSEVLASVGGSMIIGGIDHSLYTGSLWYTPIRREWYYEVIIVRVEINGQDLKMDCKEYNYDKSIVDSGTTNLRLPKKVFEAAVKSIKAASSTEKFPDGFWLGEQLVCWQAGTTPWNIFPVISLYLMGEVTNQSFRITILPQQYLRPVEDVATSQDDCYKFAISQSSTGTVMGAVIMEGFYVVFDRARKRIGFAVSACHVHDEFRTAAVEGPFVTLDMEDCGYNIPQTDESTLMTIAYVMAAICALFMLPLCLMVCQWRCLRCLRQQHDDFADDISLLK

## NC1=N[C@]2(c3cc(-c4cccnc4F)ccc3Oc3c(F)cc(C4=CCCOC4)cc32)c2nccn21 [Example 13, (7S)-2′-(5,6-dihydro-2H-pyran-3-yl)-4′-fluoro-7′-(2-fluoro-3-pyridinyl)spiro[imidazo[1,5-a]imidazole-7,9′-xanthen]-5-amine]
BACE 1
  IC50: 0.4 nM
[1]; Homo sapiens, HEK293
  IC50: 29 nM

## NC1=N[C@]2(c3cc(-c4cccnc4F)ccc3Oc3c(F)cc(-c4ccnc(F)c4)cc32)c2nccn21 [Example 8A, (7S)-4′-fluoro-7′-(2-fluoro-3-pyridinyl)-2′-(2-fluoro-4-pyridinyl)spiro[imidazo[1,5-a]imidazole-7,9′-xanthen]-5-amine]
BACE 1
  IC50: 10 nM
[1]; Homo sapiens, HEK293
  IC50: 138 nM

## NC1=N[C@@]2(c3cc(-c4cccnc4F)ccc3Oc3c(F)cc(N4CCOCC4)cc32)c2nccn21 [Example 9B, (7R)-4′-fluoro-7′-(2-fluoro-3-pyridinyl)-2′-(4-morpholinyl)spiro[imidazo[1,5-a]imidazole-7,9′-xanthen]-5-amine]
BACE 1
  IC50: 0.7 nM
[1]; Homo sapiens, HEK293
  IC50: 31 nM

## NC1=N[C@@]2(c3cc(-c4cccnc4F)ccc3Oc3c(F)cc(-c4ccnc(F)c4)cc32)c2nccn21 [Example 8B, (7R)-4′-fluoro-7′-(2-fluoro-3-pyridinyl)-2′-(2-fluoro-4-pyridinyl)spiro[imidazo[1,5-a]imidazole-7,9′-xanthen]-5-amine]
BACE 1
  IC50: 0.3 nM
[1]; Homo sapiens, HEK293
  IC50: 86 nM

## COc1cc(F)c2c(c1)[C@@]1(N=C(N)N3CCCN=C31)c1cc(-c3cccnc3F)ccc1O2 [Example 10, (7S)-4′-fluoro-7′-(2-fluoropyridin-3-yl)-2′-methoxy-3,4-dihydro-2H-spiro[imidazo[1,5-a]pyrimidine-8,9′-xanthen]-6-amine (7R)-4′-fluoro-7′-(2-fluoropyridin-3-yl)-2′-methoxy-3,4-dihydro-2H-spiro[imidazo[1,5-a]pyrimidine-8,9′-xanthen]-6-amine]
BACE 1
  IC50: 22 nM
[1]; Homo sapiens, HEK293
  IC50: 78 nM

## NC1=N[C@@]2(c3cc(-c4cccnc4F)ccc3Oc3c(F)cc(C4=CCCOC4)cc32)c2nccn21 [Example 12, (7R)-2′-(5,6-dihydro-2H-pyran-3-yl)-4′-fluoro-7′-(2-fluoro-3-pyridinyl)spiro[imidazo[1,5-a]imidazole-7,9′-xanthen]-5-amine]
BACE 1
  IC50: 23 nM
[1]; Homo sapiens, HEK293
  IC50: 173 nM

## NC1=N[C@]2(c3cc(-c4cccnc4F)ccc3Oc3c(F)cc(N4CCOCC4)cc32)c2nccn21 [Example 9A, (7S)-4′-fluoro-7′-(2-fluoro-3-pyridinyl)-2′-(4-morpholinyl)spiro[imidazo[1,5-a]imidazole-7,9′-xanthen]-5-amine]
BACE 1
  IC50: 189 nM
[1]; Homo sapiens, HEK293
  IC50: 3970 nM

## NC1=N[C@]2(c3cc(-c4cccnc4F)ccc3Oc3c(F)cc(N4CCC(F)(F)CC4)cc32)c2nccn21 [Example 17, (7R)-2′-(4,4-difluoro-1-piperidinyl)-4′-fluoro-7′-(2-fluoro-3-pyridinyl)spiro[imidazo[1,5-a]imidazole-7,9′-xanthen]-5-amine, (7S)-2′-(4,4-difluoro-1-piperidinyl)-4′-fluoro-7′-(2-fluoro-3-pyridinyl)spiro[imidazo[1,5-a]imidazole-7,9′-xanthen]-5-amine]
BACE 1
  IC50: 0.7 nM
[1]
  IC50: 51 nM

## Cc1ccc(-c2cc(F)c3c(c2)[C@]2(N=C(N)n4ccnc42)c2cc(-c4cccnc4F)ccc2O3)cc1 [Example 14, (7R)-4′-fluoro-7′-(2-fluoro-3-pyridinyl)-2′-(4-methylphenyl)spiro[imidazo[1,5-a]imidazole-7,9′-xanthen]-5-amine]
BACE 1
  IC50: 114 nM
[1]; Homo sapiens, HEK293
  IC50: 4160 nM

## Cc1ccc(-c2cc(F)c3c(c2)[C@@]2(N=C(N)n4ccnc42)c2cc(-c4cccnc4F)ccc2O3)cc1 [Example 15, (7S)-4′-fluoro-7′-(2-fluoro-3-pyridinyl)-2′-(4-methylphenyl)spiro[imidazo[1,5-a]imidazole-7,9′-xanthen]-5-amine]
BACE 1
  IC50: 0.4 nM
[1]; Homo sapiens, HEK293
  IC50: 28 nM

## NC(=O)[C@@H](CCC(F)(F)F)N(Cc1ccc(-c2ncon2)cc1F)S(=O)(=O)c1ccc(Cl)cc1 [BMS-708163]
gamma-secretase
  notch selectivity (amyloid-beta precursor protein selective): 193 ×

## COc1cc(F)c2c(c1)C1(N=C(N)n3ccnc31)c1cc(-c3cccnc3F)ccc1O2 (stereo not shown) [Example 11, 4′-fluoro-7′-(2-fluoro-3-pyridinyl)-2′-methoxyspiro[imidazo[1,5-a]imidazole-7,9′-xanthen]-5-amine]
BACE 1
  IC50: 9 nM
[1]; Homo sapiens, HEK293
  IC50: 58 nM

## (7R)-2′-(3,6-dihydro-2H-pyran-4-yl)-4′-fluoro-7′-(2-fluoro-3-pyridinyl)spiro[imidazo[1,5-a]imidazole-7,9′-xanthen]-5-amine, (7S)-2′-(3,6-dihydro-2H-pyran-4-yl)-4′-fluoro-7′-(2-fluoro-3-pyridinyl)spiro[imidazo[1,5-a]imidazole-7,9′-xanthen]-5-amine [Example 16]
BACE 1
  IC50: 0.6 nM
[1]
  IC50: 39 nM
